Among the targets are HLA-A1 (A*0101) (Homo sapiens, UniProt P04439, A114D/A174V/A182V/D101N/D185E/E176A/E190D/L180R/Q94H/R68K/S129P/T187R/V100A/V91M/W191G); A*2601 (Homo sapiens, UniProt P04439, A114D/A173T/A270S/D101N/D185E/E277Q/E87N/F33Y/G231S/I121R/I218V/K168Q/L180W/L300P/L318F/P208A/P217A/Q86R/Q94H/R138Q/S129P/T187R/T323A/T345S/V100A/V358M); A*2902 (Homo sapiens, UniProt P04439, A270S/D101N/D185E/E176V/E277Q/E87Q/F33T/G231S/H175R/I121M/I218V/I322F/K168Q/L300P/L318F/M331R/P208A/P217A/Q86L/T323A/T345S/V100A/V358M); A*3002 (Homo sapiens, UniProt P04439, D101N/D140H/D185E/E176R/F33S/G80R/H175R/K168Q/Q94H/R138E/R41S/V100E).

Holding throughout (test): biochemical
Common to all, as to type: binding

No end group written: not given here.

Sequence of A*3002 (P04439 whole entry, looked up, the tested form may be a part, stated change not applied): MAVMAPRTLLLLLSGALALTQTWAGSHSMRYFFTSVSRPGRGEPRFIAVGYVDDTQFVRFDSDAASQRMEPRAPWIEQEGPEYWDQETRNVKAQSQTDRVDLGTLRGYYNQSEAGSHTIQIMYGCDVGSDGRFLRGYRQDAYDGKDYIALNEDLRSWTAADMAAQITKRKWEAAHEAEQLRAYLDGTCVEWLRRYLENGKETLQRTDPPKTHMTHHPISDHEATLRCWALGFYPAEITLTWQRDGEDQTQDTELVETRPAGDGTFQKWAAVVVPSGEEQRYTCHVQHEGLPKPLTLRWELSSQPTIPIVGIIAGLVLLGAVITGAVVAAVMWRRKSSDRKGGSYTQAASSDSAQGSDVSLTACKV

One may read the IC50 as the midpoint of a concentration-inhibition curve. A high value points to weaker potency in that assay. As for KSDIVTLTY [Peptide 1593.07], the IC50 against HLA-A1 (A*0101) was 0.062 µM; on A*2601 it was more than 20 µM; on A*2902, 3.17 µM.
Regarding RTKNPEIVIY [Peptide 9015.0164], the IC50 was more than 20 µM at HLA-A1 (A*0101), 0.012 µM against A*3002, more than 20 µM at A*2601 and more than 20 µM at A*2902.
For GLDDQLIHLY [Peptide 9018.0024], the 50% inhibitory concentration (IC50) on HLA-A1 (A*0101) was 0.011 µM; against A*3002, 0.056 µM; against A*2601 it was 1.42 µM; against A*2902, 0.432 µM.
Turning to VSIEWRLRRY [Peptide 9015.0181], the IC50 at HLA-A1 (A*0101) worked out at 4.63 µM; at A*3002, 0.055 µM; at A*2601, 0.363 µM; on A*2902, 2.49 µM.
As to ISNYTDTIY [Peptide 9015.0007], the IC50 against HLA-A1 (A*0101) was found to be 0.104 µM; against A*3002, 0.036 µM; at A*2601, 6.1 µM; at A*2902 it was 0.141 µM.
SIEWRLRRY [Peptide 9015.0035]: the IC50 at HLA-A1 (A*0101) was 5.23 µM; on A*3002, 0.265 µM; against A*2601 it was 0.164 µM; on A*2902 it was 13.1 µM.
With FGEMVQWAY [Peptide 1580.13], the IC50 against HLA-A1 (A*0101) is 0.318 µM; at A*3002, 0.249 µM; against A*2601 it was more than 20 µM; against A*2902, 0.081 µM.
Taken in the same sequence, the figures for VSDEWRLRRY [Peptide 9018.0016] were 0.062 µM, 0.047 µM, 4.32 µM and 2.58 µM.
With KYCWNLLQY [Peptide 1595.08], the IC50 against HLA-A1 (A*0101) is more than 20 µM; against A*3002, 0.047 µM; on A*2601 it was more than 20 µM; against A*2902, 0.235 µM.
HTAREKHPEY [Peptide 9018.0006]: the IC50 against A*2601 was 0.015 µM; against A*2902 it was 4.46 µM.
With LYDQLIHLY [Peptide 9018.0028], the IC50 against HLA-A1 (A*0101) was 0.177 µM; at A*3002, 0.021 µM; against A*2601, 0.069 µM; against A*2902, 0.249 µM.
Take ETWETWWMDY [Peptide 9015.0168]: the IC50 at HLA-A1 (A*0101) amounted to 0.091 µM; against A*3002, 0.601 µM; on A*2601, 0.0029 µM; on A*2902, 5.12 µM.
As to ITKIGPENPY [Peptide 9015.0162], the IC50 was 0.985 µM on A*2601 and more than 20 µM at A*2902.
For the compound ISWTYIDDY [Peptide 86.0135], the IC50 against A*3002 is 0.0094 µM; against A*2601, more than 20 µM; against A*2902 it was 2.49 µM.
ETPGIRYQY [Peptide 9015.0017]: the IC50 on HLA-A1 (A*0101) is 9.21 µM; on A*3002 it was 2.3 µM; against A*2601, 0.025 µM; on A*2902 it was more than 20 µM.
For ISERILSTY [Peptide 1522.03], the IC50 against HLA-A1 (A*0101) was 0.031 µM; against A*2601, 4.1 µM; on A*2902, more than 20 µM.
As for HTARELHPEY [Peptide 9018.0004], the values for the IC50 against HLA-A1 (A*0101), on A*3002 and on A*2601 were 0.008 µM, 0.0092 µM and 0.012 µM, respectively.
Consider RQEILDLWVY [Peptide 9015.0174], for which the IC50 stood at 7.25 µM against HLA-A1 (A*0101), 0.076 µM at A*3002 and 8.72 µM at A*2601.
For TWETWWTDY [Peptide 9015.0019], the IC50 is more than 20 µM against HLA-A1 (A*0101), 6.31 µM against A*3002, 3.3 µM against A*2601 and 0.137 µM on A*2902.
Regarding LSDLQDSGY [Peptide 1580.15], the IC50 against HLA-A1 (A*0101) is 0.0017 µM; at A*3002 it was 4.03 µM; against A*2601, more than 20 µM; against A*2902, more than 20 µM.
On to VSIEWRQRRY [Peptide 9015.0182], for which the IC50 turned out to be 7.93 µM on HLA-A1 (A*0101), 0.065 µM at A*3002, 1.99 µM at A*2601 and 13.9 µM against A*2902.
As to VSRRANGWFY [Peptide 9015.0179], the IC50 on A*3002 is 0.0052 µM; against A*2601 it was more than 20 µM; against A*2902, 5.58 µM.
For YTDGPGVRY [Peptide 9018.0003], the 50% inhibitory concentration (IC50) came to 0.0021 µM at HLA-A1 (A*0101), 0.045 µM against A*3002, 0.152 µM at A*2601 and 0.039 µM on A*2902.
As for MRDNWRSELY [Peptide 9015.0155], the IC50 is more than 20 µM against HLA-A1 (A*0101), 0.073 µM against A*3002, more than 20 µM at A*2601 and 6.8 µM on A*2902.
Take `CC[C@H](C)[C@H](NC(=O)[C@H](CO)NC(=O)[C@@H](NC(=O)[C@@H]1CCCN1C(=O)[C@H](CO)NC(=O)[C@H](Cc1ccc(O)cc1)NC(=O)[C@H](CCSC)NC(=O)[C@@H](N)CCCNC(=N)N)C(C)C)C(=O)N[C@@H](CC(C)C)C(=O)O` [Peptide 1605.07]: the IC50 was more than 20 µM against HLA-A1 (A*0101), 0.044 µM on A*3002, more than 20 µM against A*2601 and more than 20 µM on A*2902.
For the compound GTADQLIHLY [Peptide 9018.0023], the IC50 against HLA-A1 (A*0101) is 0.026 µM; at A*3002, 0.002 µM; at A*2601, 0.068 µM.
On to LFDQLIHMYY [Peptide 9018.0030], for which the IC50 at A*3002 worked out at 0.065 µM; at A*2601 it was 2.41 µM; on A*2902 it was 0.012 µM.
Consider LTDDSDIAYY [Peptide 1580.12], for which the IC50 on HLA-A1 (A*0101) came out at 0.0064 µM; against A*3002, 0.293 µM; against A*2601, 0.738 µM; on A*2902, 3.98 µM.
On to MSMSQWIKY [Peptide 1580.05], for which the IC50 against HLA-A1 (A*0101) is 0.229 µM; at A*3002, 0.0018 µM; at A*2601, 0.158 µM; at A*2902, 0.0077 µM.
For the compound VTRRAKGWFY [Peptide 9018.0013], the half-inhibitory concentration (IC50) against HLA-A1 (A*0101) was 0.0015 µM; against A*3002, 0.0033 µM; on A*2601, 0.015 µM; against A*2902 it was 0.021 µM.
In the case of VTTIVYIEY [Peptide 9018.0041], the IC50 against HLA-A1 (A*0101) is 0.0036 µM; against A*3002, 0.092 µM; at A*2601 it was 0.448 µM.
For SYEWRLRRY [Peptide 9018.0036], the values for the IC50 at HLA-A1 (A*0101), against A*3002 and on A*2601 were 3.7 µM, 0.058 µM and 3.22 µM, respectively.
In the case of LTDQLIHLY [Peptide 9018.0026], the IC50 against HLA-A1 (A*0101) is 0.00053 µM; on A*3002 it was 0.0026 µM; against A*2601 it was 0.432 µM; against A*2902, 0.178 µM.
The corresponding values for VTIEWRLRRY [Peptide 9018.0015] are 0.019 µM, 0.0035 µM, 0.033 µM and 0.123 µM.
Turning to YTPGPGVRY [Peptide 9015.0026], the IC50 against A*3002 was determined as 7.64 µM; against A*2601 it was 0.027 µM; on A*2902, 1.35 µM.
Take EISNYTDTIY [Peptide 9015.0157]: the IC50 is 2.34 µM against HLA-A1 (A*0101), 7.05 µM on A*3002, 0.032 µM against A*2601 and more than 20 µM against A*2902.
Take NSLVKHHMY [Peptide 9015.0033]: the IC50 against HLA-A1 (A*0101) is 2.03 µM; against A*3002, 0.451 µM; at A*2601, more than 20 µM; on A*2902 it was 0.326 µM.
As for YTDGPGTRY [Peptide 9018.0002], the concentration for half-maximal inhibition (IC50) against HLA-A1 (A*0101) was determined as 0.00039 µM; against A*3002 it was 0.063 µM; on A*2601, 0.028 µM; against A*2902, 0.065 µM.
For VSRDAKGWFY [Peptide 9018.0014], the IC50 against HLA-A1 (A*0101) was 0.014 µM; on A*3002, 0.0034 µM; on A*2601 it was 0.064 µM; at A*2902, 0.017 µM.
On to LSEMVQWAY [Peptide 1580.10], for which the results for the IC50 at HLA-A1 (A*0101), against A*2601 and on A*2902 were 0.0069 µM, more than 20 µM and 0.633 µM, respectively.
With LADQLIHMYY [Peptide 9015.0187], the IC50 worked out at 0.0025 µM against HLA-A1 (A*0101), 0.769 µM on A*3002 and 1.78 µM against A*2601.
For GTEELRSLY [Peptide 9015.0010], the IC50 came out at 0.051 µM at A*3002, 0.666 µM against A*2601 and 4.83 µM at A*2902.
Take MWKFDSRLAL [Peptide 1605.17]: the IC50 against HLA-A1 (A*0101), at A*2601 and against A*2902 was more than 20 µM throughout.
With LTDDSDIAY [Peptide 1580.11], the results for the IC50 at A*3002, on A*2601 and at A*2902 were 5.44 µM, 3.92 µM and 4.77 µM, respectively.
For VMDDSEIAY [Peptide 1580.07], the IC50 at A*3002 is 2.55 µM; at A*2601, more than 20 µM; against A*2902 it was 0.095 µM.
As for VTDDSEIAY [Peptide 1593.13], the concentration for half-maximal inhibition (IC50) was 0.022 µM at HLA-A1 (A*0101), 10.1 µM on A*3002 and more than 20 µM on A*2601.
On to GLADQLIHLY [Peptide 9015.0185], for which the half-maximal inhibitory concentration (IC50) was 5.52 µM on HLA-A1 (A*0101), 0.0092 µM on A*3002 and 0.426 µM against A*2601.
With YTPGPGTRY [Peptide 9015.0027], the IC50 against A*3002 was 9.15 µM; at A*2601, 0.011 µM; against A*2902, 1.28 µM.
For the compound SFDPIPIHY [Peptide 9015.0002], the IC50 against HLA-A1 (A*0101) turned out to be 0.315 µM; against A*2601, 2.65 µM; against A*2902, 0.027 µM.
For LTDQLIHMYY [Peptide 9018.0029], the IC50 came out at 0.0063 µM against HLA-A1 (A*0101), 0.197 µM at A*3002 and 3.21 µM at A*2601.
In the case of DLADQLIHLY [Peptide 9015.0184], the 50% inhibitory concentration (IC50) was 0.958 µM against HLA-A1 (A*0101), 0.0062 µM on A*2601 and 9.79 µM against A*2902.

The values are drawn from US9340577B2, “HLA binding motifs and peptides and their uses” (priority 1992, dated 2016).
